Source: ChEMBL document CHEMBL4138175, “Newly designed organotin(IV) carboxylates with peptide linkage: Synthesis, structural elucidation, physicochemical characterizations and pharmacological investigations” (Eur J Med Chem, 2018)
The source made the active and inactive calls. No cut-off for these calls is given here.

Columns and labels:
[1] = tested on: NCI-H157; experiment: Cytotoxicity against human NCI-H157 cells at 100 uM after 48 hrs by sulforhodamine B assay; type: functional
[2] = tested on: NCI-H157; experiment: Cytotoxicity against human NCI-H157 cells at 10 uM after 48 hrs by sulforhodamine B assay; type: functional
[3] = tested on: NCI-H157; experiment: Cytotoxicity against human NCI-H157 cells at 1 uM after 48 hrs by sulforhodamine B assay; type: functional
[4] = tested on: NCI-H157; experiment: Cytotoxicity against human NCI-H157 cells at 0.1 uM after 48 hrs by sulforhodamine B assay; type: functional
[5] = tested on: Leishmania major; experiment: Antileishmanial activity against Leishmania major promastigotes at 100 uM after 72 hrs by MTT assay relative to control; type: functional
[6] = tested on: Leishmania major; experiment: Antileishmanial activity against Leishmania major promastigotes at 10 uM after 72 hrs by MTT assay relative to control; type: functional
[7] = tested on: Leishmania major; experiment: Antileishmanial activity against Leishmania major promastigotes at 1 uM after 72 hrs by MTT assay relative to control; type: functional
[8] = tested on: Leishmania major; experiment: Antileishmanial activity against Leishmania major promastigotes at 0.1 uM after 72 hrs by MTT assay relative to control; type: functional
[9] = tested on: Klebsiella pneumoniae; experiment: Antibacterial activity against Klebsiella pneumoniae assessed as zone of inhibition after 24 to 48 hrs by well diffusion method; type: functional
[10] = tested on: Streptococcus pyogenes; experiment: Antibacterial activity against Streptococcus pyogenes assessed as zone of inhibition after 24 to 48 hrs by well diffusion method; type: functional
[11] = tested on: Staphylococcus epidermidis; experiment: Antibacterial activity against Staphylococcus epidermidis assessed as zone of inhibition after 24 to 48 hrs by well diffusion method; type: functional
[12] = tested on: Staphylococcus aureus; experiment: Antibacterial activity against Staphylococcus aureus assessed as zone of inhibition after 24 to 48 hrs by well diffusion method; type: functional
[13] = tested on: Serratia marcescens; experiment: Antibacterial activity against Serratia marcescens assessed as zone of inhibition after 24 to 48 hrs by well diffusion method; type: functional
[14] = tested on: Pseudomonas aeruginosa; experiment: Antibacterial activity against Pseudomonas aeruginosa assessed as zone of inhibition after 24 to 48 hrs by well diffusion method; type: functional
[15] = tested on: Escherichia coli; experiment: Antibacterial activity against Escherichia coli assessed as zone of inhibition after 24 to 48 hrs by well diffusion method; type: functional
[16] = tested on: Klebsiella pneumoniae; experiment: Antibacterial activity against Klebsiella pneumoniae assessed as zone of inhibition by measuring activity index after 24 to 48 hrs by well diffusion method relative to tetracycline; type: functional, organism-based
[17] = tested on: Klebsiella pneumoniae; experiment: Antibacterial activity against Klebsiella pneumoniae assessed as zone of inhibition by measuring activity index after 24 to 48 hrs by well diffusion method relative to ampicillin; type: functional, organism-based
[18] = tested on: Klebsiella pneumoniae; experiment: Antibacterial activity against Klebsiella pneumoniae assessed as zone of inhibition by measuring activity index after 24 to 48 hrs by well diffusion method relative to amoxicillin; type: functional, organism-based
[19] = tested on: Staphylococcus epidermidis; experiment: Antibacterial activity against Staphylococcus epidermidis assessed as zone of inhibition by measuring activity index after 24 to 48 hrs by well diffusion method relative to penicillin G; type: functional, organism-based
[20] = tested on: Staphylococcus epidermidis; experiment: Antibacterial activity against Staphylococcus epidermidis assessed as zone of inhibition by measuring activity index after 24 to 48 hrs by well diffusion method relative to ampicillin; type: functional, organism-based
[21] = tested on: Serratia marcescens; experiment: Antibacterial activity against Serratia marcescens assessed as zone of inhibition by measuring activity index after 24 to 48 hrs by well diffusion method relative to penicillin G; type: functional
[22] = tested on: Serratia marcescens; experiment: Antibacterial activity against Serratia marcescens assessed as zone of inhibition by measuring activity index after 24 to 48 hrs by well diffusion method relative to ampicillin; type: functional
[23] = tested on: Serratia marcescens; experiment: Antibacterial activity against Serratia marcescens assessed as zone of inhibition by measuring activity index after 24 to 48 hrs by well diffusion method relative to amoxicillin; type: functional
[24] = tested on: Pseudomonas aeruginosa; experiment: Antibacterial activity against Pseudomonas aeruginosa assessed as zone of inhibition by measuring activity index after 24 to 48 hrs by well diffusion method relative to tetracycline; type: functional, organism-based
[25] = tested on: Pseudomonas aeruginosa; experiment: Antibacterial activity against Pseudomonas aeruginosa assessed as zone of inhibition by measuring activity index after 24 to 48 hrs by well diffusion method relative to penicillin G; type: functional, organism-based
[26] = tested on: Pseudomonas aeruginosa; experiment: Antibacterial activity against Pseudomonas aeruginosa assessed as zone of inhibition by measuring activity index after 24 to 48 hrs by well diffusion method relative to amoxicillin; type: functional, organism-based
[27] = tested on: Escherichia coli; experiment: Antibacterial activity against Escherichia coli assessed as zone of inhibition by measuring activity index after 24 to 48 hrs by well diffusion method relative to tetracycline; type: functional
[28] = tested on: DNA; experiment: Binding affinity to single-stranded DNA (unknown origin) after 10 mins by UV-visible spectrometric method; type: nucleic-acid assay
[29] = tested on: NCI-H157; experiment: Cytotoxicity against human NCI-H157 cells after 48 hrs by sulforhodamine B assay; type: functional, cell-based
[30] = tested on: DNA; experiment: Binding affinity to single-stranded DNA (unknown origin) assessed as red shift up to 72 uM after 10 mins by UV-visible spectrometric method; type: nucleic-acid assay
[31] = tested on: Klebsiella pneumoniae; experiment: Antibacterial activity against Klebsiella pneumoniae assessed as zone of inhibition by measuring activity index after 24 to 48 hrs by well diffusion method relative to penicillin G; type: functional, organism-based
[32] = tested on: Streptococcus pyogenes; experiment: Antibacterial activity against Streptococcus pyogenes assessed as zone of inhibition by measuring activity index after 24 to 48 hrs by well diffusion method relative to tetracycline; type: functional, organism-based
[33] = tested on: Streptococcus pyogenes; experiment: Antibacterial activity against Streptococcus pyogenes assessed as zone of inhibition by measuring activity index after 24 to 48 hrs by well diffusion method relative to penicillin G; type: functional, organism-based
[34] = tested on: Streptococcus pyogenes; experiment: Antibacterial activity against Streptococcus pyogenes assessed as zone of inhibition by measuring activity index after 24 to 48 hrs by well diffusion method relative to ampicillin; type: functional, organism-based
[35] = tested on: Streptococcus pyogenes; experiment: Antibacterial activity against Streptococcus pyogenes assessed as zone of inhibition by measuring activity index after 24 to 48 hrs by well diffusion method relative to amoxicillin; type: functional, organism-based
[36] = tested on: Staphylococcus epidermidis; experiment: Antibacterial activity against Staphylococcus epidermidis assessed as zone of inhibition by measuring activity index after 24 to 48 hrs by well diffusion method relative to tetracycline; type: functional, organism-based
[37] = tested on: Staphylococcus epidermidis; experiment: Antibacterial activity against Staphylococcus epidermidis assessed as zone of inhibition by measuring activity index after 24 to 48 hrs by well diffusion method relative to amoxicillin; type: functional, organism-based
[38] = tested on: Staphylococcus aureus; experiment: Antibacterial activity against Staphylococcus aureus assessed as zone of inhibition by measuring activity index after 24 to 48 hrs by well diffusion method relative to tetracycline; type: functional, organism-based
[39] = tested on: Staphylococcus aureus; experiment: Antibacterial activity against Staphylococcus aureus assessed as zone of inhibition by measuring activity index after 24 to 48 hrs by well diffusion method relative to penicillin G; type: functional, organism-based
[40] = tested on: Staphylococcus aureus; experiment: Antibacterial activity against Staphylococcus aureus assessed as zone of inhibition by measuring activity index after 24 to 48 hrs by well diffusion method relative to ampicillin; type: functional, organism-based
[41] = tested on: Staphylococcus aureus; experiment: Antibacterial activity against Staphylococcus aureus assessed as zone of inhibition by measuring activity index after 24 to 48 hrs by well diffusion method relative to amoxicillin; type: functional, organism-based
[42] = tested on: Pseudomonas aeruginosa; experiment: Antibacterial activity against Pseudomonas aeruginosa assessed as zone of inhibition by measuring activity index after 24 to 48 hrs by well diffusion method relative to ampicillin; type: functional, organism-based
[43] = tested on: Escherichia coli; experiment: Antibacterial activity against Escherichia coli assessed as zone of inhibition by measuring activity index after 24 to 48 hrs by well diffusion method relative to penicillin G; type: functional, organism-based
[44] = tested on: Escherichia coli; experiment: Antibacterial activity against Escherichia coli assessed as zone of inhibition by measuring activity index after 24 to 48 hrs by well diffusion method relative to ampicillin; type: functional, organism-based
[45] = tested on: Escherichia coli; experiment: Antibacterial activity against Escherichia coli assessed as zone of inhibition by measuring activity index after 24 to 48 hrs by well diffusion method relative to amoxicillin; type: functional, organism-based

Substance	Activity [1]	Activity [2]	Activity [3]	Activity [4]	Activity [5]	Activity [6]	Activity [7]	Activity [8]	inhibition zone (IZ) [9]	inhibition zone (IZ) [10]	inhibition zone (IZ) [11]	inhibition zone (IZ) [12]	inhibition zone (IZ) [13]	inhibition zone (IZ) [14]	inhibition zone (IZ) [15]	Activity index [21]	Activity index [22]	Activity index [23]	Activity [29]	Activity index [36]	further results
(1,10-Phenanthroline) trimethylstannyl 2-(4-methoxy-2-nitrophenylcarbamoyl)benzoate	55.5%	52.4%	47.1%	44%	52.7%	58.4%	57.9%	56.2%	27.7 mm	15 mm	inactive	5.66 mm	20 mm	11.3 mm	20.7 mm	2.5	2.5	3.34	Dose-dependent effect		Activity index [16]: 1.98; Activity index [17]: 4.61; Activity index [18]: 4.61; Activity_index [19]: inactive; Activity_index [20]: inactive; Activity index [24]: 1.89; Activity index [25]: 1.89; Activity index [26]: 1.89; Activity index [27]: 10.3; K [28]: 2.5 ×10⁴ /M; Activity [30]: < 3 nm
(2,2'-Bipyridine) trimethylstannyl 2-(4-methoxy-2-nitrophenylcarbamoyl)benzoate	63.2%	59.9%	57.8%	56.7%	56.6%	50.9%	44.3%	39.2%	inactive	inactive	23.3 mm	19.3 mm	19.3 mm	20.3 mm	17.7 mm	2.42	2.42	3.22	Dose-dependent effect	2.33	Activity_index [31]: inactive; Activity_index [32]: inactive; Activity_index [33]: inactive; Activity_index [34]: inactive; Activity_index [35]: inactive; Activity index [37]: 11.7; Activity index [24]: 3.39; Activity index [25]: 3.39; Activity index [26]: 3.39; Activity index [27]: 8.83; K [28]: 1.2 ×10⁴ /M; Activity [30]: < 3 nm
Dioctylstannanediyl bis 2-(4-methoxy-2-nitrophenylcarbamoyl)benzoate	63.7%	59.1%	54.3%	48.9%	58.8%	55.2%	47.1%	42.9%	22.3 mm	12 mm	11.3 mm	inactive	5 mm	inactive	inactive	0.63	0.63	0.84	Dose-dependent effect	1.13	Activity index [16]: 1.59; Activity index [17]: 3.72; Activity index [18]: 3.72; Activity index [37]: 5.67; Activity_index [38]: inactive; Activity_index [39]: inactive; Activity_index [40]: inactive; Activity_index [41]: inactive; Activity_index [42]: inactive; Activity_index [43]: inactive; Activity_index [44]: inactive; Activity_index [45]: inactive
Divinylstannanediyl bis 2-(4-methoxy-2-nitrophenylcarbamoyl)benzoate	64.3%	61%	58.3%	55.4%	60.9%	55.4%	48.8%	43.3%	inactive	inactive	14.2 mm	inactive	11 mm	inactive	inactive	1.37	1.37	1.84	Dose-dependent effect	1.42	Activity_index [31]: inactive; Activity_index [32]: inactive; Activity_index [33]: inactive; Activity_index [34]: inactive; Activity_index [35]: inactive; Activity index [37]: 7.11; Activity_index [38]: inactive; Activity_index [39]: inactive; Activity_index [40]: inactive; Activity_index [41]: inactive; Activity_index [42]: inactive; Activity_index [43]: inactive; Activity_index [44]: inactive; Activity_index [45]: inactive
Tributylstannyl 2-(4-methoxy-2-nitrophenylcarbamoyl)benzoate	38.2%	37.7%	35.6%	32.1%	66.9%	63.3%	57.4%	52.6%	15 mm	inactive	16 mm	inactive	12.7 mm	15.7 mm	1.56 mm	1.58	1.58	2.11	Dose-dependent effect	1.6	Activity index [16]: 1.07; Activity index [17]: 2.5; Activity index [18]: 2.5; Activity_index [32]: inactive; Activity_index [33]: inactive; Activity_index [34]: inactive; Activity_index [35]: inactive; Activity index [37]: 8; Activity_index [38]: inactive; Activity_index [39]: inactive; Activity_index [40]: inactive; Activity_index [41]: inactive; Activity index [24]: 2.61; Activity index [25]: 2.61; Activity index [26]: 2.61; Activity index [27]: 0.78; K [28]: 7.6 ×10³ /M; Activity [30]: < 3 nm
